row,SMILES,melting point
1,Cc1ccc2c(C(=O)Nc3nccs3)cn(C(C)C)c2c1,215 to 217 °C
2,CC(C)n1cc(C(=O)Nc2nccs2)c2ccc(Cl)cc21,202 to 204 °C
3,CCn1cc(C(=O)Nc2nccs2)c2ccc(Cl)cc21,234 to 236 °C
4,CCCn1cc(C(=O)Nc2nccs2)c2ccc(Cl)cc21,175 to 176 °C
5,CC(C)Cn1cc(C(=O)Nc2nccs2)c2ccc(Cl)cc21,200 to 202 °C
6,CCCCCn1cc(C(=O)Nc2nccs2)c2ccc(Cl)cc21,139 to 141 °C
7,CC(C)CCn1cc(C(=O)Nc2nccs2)c2ccc(Cl)cc21,179 to 180 °C
8,O=C(Nc1nccs1)c1cn(CC2CCC2)c2cc(Cl)ccc12,169 to 173 °C
9,CC(C)n1cc(C(=O)Nc2nccs2)c2ccc(C(F)(F)F)cc21,246 to 247 °C
10,O=C(Nc1nccs1)c1cn(CC2CCCCC2)c2cc(Cl)ccc12,181 to 183 °C
11,Cc1cnc(NC(=O)c2cn(C(C)C)c3cc(Cl)ccc23)s1,216 to 219 °C
12,CC(C)n1cc(C(=O)Nc2ncc(Cl)s2)c2ccc(Cl)cc21,252 to 253 °C
13,CC(C)n1cc(C(=O)Nc2ncc(Br)s2)c2ccc(Cl)cc21,240 to 242 °C
14,CCOC(=O)Cc1csc(NC(=O)c2cn(C(C)C)c3cc(Cl)ccc23)n1,65 to 75 °C
15,Cc1ccc(NC(=O)c2cn(C(C)C)c3cc(Cl)ccc23)nc1,132 to 134 °C
16,CC(C)n1cc(C(=O)Nc2ccc(C(F)(F)F)cn2)c2ccc(Cl)cc21,179 to 181 °C
17,CC(C)n1cc(C(=O)Nc2ccc(Br)cn2)c2ccc(Cl)cc21,57 to 64 °C
18,COc1ccc2c(C(=O)Nc3nccs3)cn(C(C)C)c2c1,182 to 185 °C
19,CSc1ccc2c(C(=O)Nc3nccs3)cn(C(C)C)c2c1,172 to 176 °C
20,CC(C)n1cc(C(=O)Nc2nccs2)c2ccc(Br)cc21,205 to 207 °C

# Continued, values first:
row,melting point,SMILES
1,168 to 169 °C,CCCCn1cc(C(=O)Nc2nccs2)c2ccc(Cl)cc21
2,185 to 187 °C,O=C(Nc1nccs1)c1cn(CC2CC2)c2cc(Cl)ccc12
3,117 to 119 °C,O=C(Nc1nccs1)c1cn(CC2CCCC2)c2cc(Cl)ccc12
4,274 to 275 °C,CC(C)n1cc(C(=O)Nc2nncs2)c2ccc(Cl)cc21
5,201 to 203 °C,Cc1csc(NC(=O)c2cn(C(C)C)c3cc(Cl)ccc23)n1
6,149 to 150 °C,CC(C)n1cc(C(=O)Nc2ccccn2)c2ccc(Cl)cc21
7,236 to 239 °C,CC(C)n1cc(C(=O)Nc2nccs2)c2ccc([N+](=O)[O-])cc21
8,131 to 134 °C,CC(C)n1cc(C(=O)Nc2ccc(Cl)cn2)c2ccc(Cl)cc21
9,239 to 241 °C,CC(C)n1cc(C(=O)Nc2nccs2)c2ccc(O)cc21
10,247 to 249 °C,CC(C)n1cc(C(=O)Nc2nccs2)c2ccc(S(C)(=O)=O)cc21
11,203 to 204 °C,CC(C)n1cc(C(=O)Nc2nccs2)c2ccc(F)cc21

# From patent US6881844B2, “Indole-3-carboxamides as glucokinase activators” (Hoffman-La Roche Inc., priority 2002, dated 2005)
